# Measurements reported in patent US20250025451A1, “TREATMENT OF CANCER WITH KDM4 INHIBITORS” (Celgene Corporation, priority 2021, published 2025).
# Like-named read-outs stand apart in the source and are kept apart here.
# Columns and labels:
# [1] = system: erythroid hematopoietic progenitor cells derived from human bone marrow; experiment: erythroid colony formation of hematopoietic progenitor cells; type: cell-based; conditions: 336 h, human bone marrow progenitor cells
# Experimental: (§1) Compound 1 was evaluated for its effects on proliferation of erythroid and myeloid hematopoietic progenitor cells derived from human bone marrow at […] Technologies Inc. (Vancouver, BC, Canada).
# (§2) Cells were thawed rapidly at 37° C. into DNAse I and then diluted in 10 mL of Iscove's Modified Dulbecco's medium containing 2% fetal bovine serum (IMDM+2% FBS) and washed by centrifugation (1200 rpm for 10 minutes at room temperature). The supernatant was discarded and the cell pellet resuspended in a known volume of IMDM+2% FBS. A nucleated cell count (3% glacial acetic acid) and viability assessment (trypan blue exclusive test) were performed.
# (§3) Compound 1 and positive control (panobinostat) were diluted in DMSO and tested at concentrations ranging from 0.002 μM to 5 μM in final media. These dilutions provided the appropriate final test concentrations required for the test and control articles ([…], and 0.002 μM).
# (§4) Test and control articles were incubated with human bone marrow hematopoietic progenitor cells. After 14 days, cell colonies were assessed.
# (§5) To calculate the concentration of 50% and 90% inhibition of colony growth (IC50 and IC90) for each test article, a dose response curve was generated plotting the log of the test article concentration versus the percentage of control colony growth using GraphPad Prism. […] The IC50 and IC90 values for both test and control articles were derived from an interpolation of the curve fit. In cases where the IC50/90 value reported by GraphPad Prism is a value beyond the range of concentrations that were actually tested, if this value is more than 4 times the highest concentration tested, or where GraphPad Prism cannot calculate an IC50/90 value, notations of >5 μM (for test article compound 1) are used.
# [2] = system: myeloid hematopoietic progenitor cells derived from human bone marrow; experiment: myeloid colony formation of hematopoietic progenitor cells; type: cell-based; conditions: 336 h, human bone marrow progenitor cells
# Experimental: as §1, §2, §3, §4, §5
smiles,measurement,setting,value
"Cc1[nH]c2ccccc2c1CCNCc1ccc(/C=C/C(=O)NO)cc1 [Panobinostat, reference compound]",IC50,"[1]; 14 days, read-out: IC50, inhibition of erythroid colony formation",< 10 nM
same,IC90,[1]; colony growth after 14 days,7.5 ng/mL
same,IC50,"[1]; colony growth after 14 days, read-out: Erythroid IC50",6.4 ng/mL
same,IC50,"[2]; 14 days, read-out: IC50, inhibition of myeloid colony formation",< 10 nM
same,IC90,[2]; colony growth after 14 days,8.1 ng/mL
same,IC50,"[2]; colony growth after 14 days, read-out: Myeloid IC50",7.4 ng/mL
